Test results: PMC8633346, “Engineering of a fluorescent chemogenetic reporter with tunable color for advanced live-cell imaging” (Nature Communications, 2021)

The compounds below were run against T1, pFAST (Halorhodospira halophila, UniProt P16113, K17N/G21E/G25R/A30V/Q41L/C69G/S72T/V83A/Y94W/F96I/D97P/Y98T/Q99S/M100R/T101G/M109L/S117R) (assay: fluorescence titration, one-site fit). Details: PBS pH 7.4.
T1 construct: gene pyp; engineered PYP variant; changes relative to FAST: K17N, G21E, G25R, A30V, Q41L, S72T, V83A, M95T, M109L, S117R (M95T restores T95 of PYP); N-terminal His-tag, E. coli Rosetta (DE3) pLys, Ni-NTA; FAST 14 kDa
T1 sequence (P16113 1-125 K17N/G21E/G25R/A30V/Q41L/C69G/S72T/V83A/Y94W/F96I/D97P/Y98T/Q99S/M100R/T101G/M109L/S117R): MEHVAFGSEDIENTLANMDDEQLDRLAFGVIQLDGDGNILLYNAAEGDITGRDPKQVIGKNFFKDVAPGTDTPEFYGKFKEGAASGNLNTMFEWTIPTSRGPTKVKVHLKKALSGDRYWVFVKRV
Assay type: binding

Row | SMILES | KD
1 | Cc1cc(C=C2SC(=O)NC2=O)ccc1O [HBT-3M, (4-hydroxy-3-methylbenzylidene)thiazolidine-2,4-dione] | KD) values of their assembly with pFAST are indicated into brackets

These compounds were tested against T2, pFAST (Halorhodospira halophila, UniProt P16113, A30V/C69G/D97P/F96I/G21E/G25R/K17N/M100R/M109L/Q41L/Q99S/S117R/S72T/T101G/V83A/Y94W/Y98T) (assay: fluorescence titration, one-site fit). Details: not given.
T2 construct: gene pyp; engineered PYP variant; changes relative to FAST: K17N, G21E, G25R, A30V, Q41L, S72T, V83A, M95T, M109L, S117R (M95T restores T95 of PYP); N-terminal His-tag, E. coli Rosetta (DE3) pLys, Ni-NTA; FAST 14 kDa
T2 sequence (P16113 1-125 K17N/G21E/G25R/A30V/Q41L/C69G/S72T/V83A/Y94W/F96I/D97P/Y98T/Q99S/M100R/T101G/M109L/S117R): T1 sequence (P16113 1-125 K17N/G21E/G25R/A30V/Q41L/C69G/S72T/V83A/Y94W/F96I/D97P/Y98T/Q99S/M100R/T101G/M109L/S117R)

Row | SMILES | Kd
2 | Cc1cc(C=C2OC(=O)NC2=O)cc(C)c1O [HBO-3,5DM, (4-hydroxy-3,5-dimethylbenzylidene)oxazolidine-2,4-dione] | 2400 nM
3 | COc1cc(/C=C2\SC(=O)NC2=O)cc(OC)c1O [HBT-3,5DOM, (4-hydroxy-3,5-dimethoxybenzylidene)thiazolidine-2,4-one] | 200 nM
4 | COc1cc(C=C2SC(O)=NC2=S)cc(OC)c1O [HBIR-3,5DOM, (4-hydroxy-3,5-dimethoxylbenzylidene)-4-thioxothiazolidin-2-one] | 40 nM
5 | Cc1cc(C=C2OC(=O)NC2=O)ccc1O [HBO-3M, (4-hydroxy-3-methylbenzylidene)oxazolidine-2,4-dione] | 430 nM
6 | Cc1cc(/C=C2\SC(=S)N(CC(=O)O)C2=O)cc(C)c1O [HBRAA-3,5DM, 5-((4-hydroxy-3,5-dimethylbenzylidene)-4-oxo-2-thioxothiazolidin-3-yl) acetic acid] | 1800 nM
7 | COc1cc(C=C2SC(=N)NC2=O)cc(OC)c1O [HBP-3,5DOM, (4-hydroxy-3,5-dimethoxybenzylidene)-2-iminothiazolidin-4-one] | 1900 nM
8 | COc1cc(C=C2SC(=S)NC2=O)cc(OC)c1O [HBR-3,5DOM, 4-hydroxy-3,5-dimethoxybenzylidene rhodanine] | 60 nM
9 | Cc1cc(C=C2SC(=N)NC2=O)cc(C)c1O [HBP-3,5DM, (4-hydroxy-3,5-dimethylbenzylidene)-2-iminothiazolidin-4-one] | 150 nM
10 | Cc1cc(C=C2SC(=O)NC2=O)cc(C)c1O [HBT-3,5DM, (4-hydroxy-3,5-dimethylbenzylidene)thiazolidine-2,4-dione] | 170 nM
11 | Cc1cc(C=C2SC(=N)NC2=O)ccc1O [HBP-3M, (4-hydroxy-3-methylbenzylidene)-2-iminothiazolidin-4-one] | 220 nM
12 | Cc1cc(C=C2SC(=S)NC2=O)cc(C)c1O [HBR-3,5DM, 4-hydroxy-3,5-dimethylbenzylidene rhodanine] | 10 nM
